Measured values from PMC7997574, “Lead Optimization of Benzoxazolone Carboxamides as Orally Bioavailable and CNS Penetrant Acid Ceramidase Inhibitors” (Journal of Medicinal Chemistry, 2020).
Like-named read-outs stand apart in the source and are kept apart here.

Experiments:
[1] = target: T1, GCase (Homo sapiens, UniProt P04062); test: In vitro hGCase assay; format: biochemical; conditions: 1 and 10 μM
T1 construct: 5 nM purified human full-length GCase enzyme; made in house
T1 sequence (P04062 40-536): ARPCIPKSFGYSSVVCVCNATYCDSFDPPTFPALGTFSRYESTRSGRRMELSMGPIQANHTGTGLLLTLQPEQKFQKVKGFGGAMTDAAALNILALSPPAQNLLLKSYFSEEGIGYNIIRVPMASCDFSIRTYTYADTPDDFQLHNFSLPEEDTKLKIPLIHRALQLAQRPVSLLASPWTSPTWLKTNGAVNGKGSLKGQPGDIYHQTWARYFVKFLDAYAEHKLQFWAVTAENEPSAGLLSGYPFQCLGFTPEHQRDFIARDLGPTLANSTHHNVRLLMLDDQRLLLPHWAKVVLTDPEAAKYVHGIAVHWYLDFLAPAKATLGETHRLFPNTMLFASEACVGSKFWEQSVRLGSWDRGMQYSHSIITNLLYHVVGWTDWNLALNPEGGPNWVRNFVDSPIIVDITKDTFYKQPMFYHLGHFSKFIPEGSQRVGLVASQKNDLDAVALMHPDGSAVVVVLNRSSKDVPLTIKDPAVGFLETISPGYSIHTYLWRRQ
Experimental: hGCase activity measurement was conducted using the fluorogenic substrate 4-methylumbelliferyl-β-D-[…] hydrate (4-MUG, Merck) at 1 mM and 5 nM purified human full-length GCase enzyme and 50 nM of its natural activator SapC (both GCase and SapC were purified in house) in a buffer containing 50 mM citric acid, 174 mM K2HPO4, 15 μM phosphatidylserine, and 0.32 mM Triton X-100 at pH 4.7 in a final volume of 50 μL. The reaction mixtures were incubated for 15 min at rt and stopped by the addition of 150 μL of 1 M glycine at pH 12.5. The cleavage of 4-MUG was monitored by a plate reader at excitation/emission wavelengths of 365/440 nm. The average hGCase activity was calculated from two independent experiments, each performed in two technical replicates.

[2] = In vitro mouse plasma protein binding (equilibrium dialysis); format: in vitro ADME; conditions: read-out: Fp, u (%) plasma fraction unbounded
Experimental: Studies were performed by the DMPK Group at Shanghai ChemPartner Co., Ltd., using the equilibrium dialysis method. Values are the mean of two technical replicates.

[3] = Plasma and brain concentrations in 4L;C* mice; format: in vivo, mouse; conditions: 1 h after last dose (day 14)
Experimental: 4L;C* mice (C57BL/6 J/129SvEV) were randomly assigned to three treatment groups (N = 4–8 with mixed males and females) and dosed once a day i.p. with 90 or 30 mg kg^–1 of 22m or vehicle. Treatment started at 5 days of age for a duration of 14 days. The application volume was set to 10 μL per gram of body weight, and dosage was adjusted accordingly. Animals of all groups were sacrificed 1 h after the last dose, and the brain tissues and plasma were collected. The left brain containing cortex, cerebella, thalamus, and brainstem was analyzed for SphL levels by MS. Data were analyzed using the Student t test. The right brain containing cortex, cerebella, thalamus, and brainstem and plasma were analyzed for drug levels of 22m. All mice were housed under pathogen-free conditions in the animal facility, and animal experiment was performed according to the IACUC approved protocol (2018-0056) at Cincinnati Children’s Hospital Research Foundation. Wild Type (WT) (GALC+/+) and Twitcher (Twi) (GALC–/−) mice were genotyped by PCR as previously described.[58] Twi mice were randomly assigned to three treatment groups (N = 3 males + N = 3 females for each group) and dosed once a day i.p. with 90 or 30 mg kg^–122m or vehicle for a duration of 20 days. Treatment started at 10 days of age. The application volume was set to 10 μL per gram of body weight, and dosage was adjusted accordingly. Two groups (N = 3 males + N = 3 females for each group) of WT controls treated with vehicle or high dose (90 mg kg^–1) of 22m were also included in the study. Animals of all groups were sacrificed 1 h after the last dose, and the brain tissues and plasma were collected. The left brain containing cortex, cerebella, thalamus, and brainstem was analyzed for SphL levels by MS. Data were analyzed using the Student t test. The right brain containing cortex, cerebella, thalamus, and brainstem and plasma were analyzed for drug levels of 22m. All animal work in this study was performed in accordance with approved animal protocols from the Animal Care and Use Committee at the University of Illinois at Chicago.

[4] = In vitro plasma stability study; format: in vitro ADME; conditions: mouse plasma; read-out: m-plasma t1/2
How it was run: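 Compound at 2 μM final incubated in mouse plasma at 37 °C for up to 120 min, sampled at 0–120 min and quenched in cold MeCN with internal standard. Remaining compound quantified by LC/MS/MS; t1/2 fitted from response vs time; mean of ≥2 experiments.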

For `CC(C)CNC(=O)n1c(=O)oc2cc(C3CCN(C)CC3)ccc21` [22m, N-Isobutyl-6-(1-methyl-4-piperidyl)-2-oxo-1,3-benzoxazole-3-carboxamide], the “effect on activity of GCase” value [1] was “no effect”, the fraction unbound [2] was 0.138 and the concentration at 1 h ([3]; 4L;C* mice, 90 mg kg^–1 i.p., read-out: Cb, u (μM) brain unbounded concentration) was 2.61 µM. The concentration at 1 h ([3]; both sexes, 4L;C* (C57BL/6 J/129SvEV), mouse, brain, ip, 30 mg kg^–1, 4L;C* mice, 30 mg kg^–1 i.p., read-out: Cb (μM) brain concentration) was 110 µM, the concentration at 1 h ([3]; both sexes, 4L;C* (C57BL/6 J/129SvEV), mouse, brain, ip, 30 mg kg^–1, 4L;C* mice, 30 mg kg^–1 i.p., read-out: Cb, u (μM) brain unbounded concentration) was 0.77 µM and the concentration at 1 h ([3]; both sexes, 4L;C* (C57BL/6 J/129SvEV), mouse, brain, ip, 90 mg kg^–1, 4L;C* mice, 90 mg kg^–1 i.p., read-out: Cb (μM) brain concentration) was 373 µM. For the same compound, the concentration at 1 h ([3]; both sexes, 4L;C* (C57BL/6 J/129SvEV), mouse, brain, ip, 90 mg kg^–1, 4L;C* mice, 90 mg kg^–1 i.p., read-out: Cb, u (μM) brain unbounded concentration) was 2.6 µM, the concentration at 1 h ([3]; both sexes, 4L;C* (C57BL/6 J/129SvEV), mouse, plasma, ip, 30 mg kg^–1, 4L;C* mice, 30 mg kg^–1 i.p., read-out: Cp (μM) plasma concentration) was 3.08 µM and the concentration at 1 h ([3]; both sexes, 4L;C* (C57BL/6 J/129SvEV), mouse, plasma, ip, 30 mg kg^–1, 4L;C* mice, 30 mg kg^–1 i.p., read-out: Cp,u (μM) plasma unbounded concentration) was 0.42 µM. For the same compound, the concentration at 1 h ([3]; both sexes, 4L;C* (C57BL/6 J/129SvEV), mouse, plasma, ip, 90 mg kg^–1, 4L;C* mice, 90 mg kg^–1 i.p., read-out: Cp (μM) plasma concentration) was 16.8 µM, the concentration at 1 h ([3]; both sexes, 4L;C* (C57BL/6 J/129SvEV), mouse, plasma, ip, 90 mg kg^–1, 4L;C* mice, 90 mg kg^–1 i.p., read-out: Cp,u (μM) plasma unbounded concentration) was 2.32 µM and the half-life at 2 µM [4] was 1.33 h. It also gave a half-life at 2 μM [4] of over 1 h.
